Reference: patent US20220274938A1, “5-[(1S)-1-(4-BROMOPHENOXY)ETHYL]-2H-TETRAZOLE DERIVATIVES AND RELATED COMPOUNDS AS CLC-1 ION CHANNEL INHIBITORS FOR TREATING NEUROMUSCULAR DISORDERS” (NMD PHARMA A/S, priority 2019, published 2022)

Biological target: T1, human CIC-1 channels (Homo sapiens, UniProt P35523)
T1 construct: host or cells: CHO (Chinese hamster ovary) cells, cryopreserved, used directly after thawing
Experiment: Automated patch-clamp on the human isoform of CIC-1 expressed in CHO cells
Type: cell-based
Details: compound added to the intracellular solution vs control cell patches, positive shift reflects inhibition
Procedure: The investigatory goal of these experiments was to evaluate how compounds affect the open probability and current amplitude of human CIC-1 channels expressed in CHO cells. Experiments were performed using an automated patch clamp system that allowed high throughput testing of whole cell patches together with both intracellular and extracellular addition of compound.
Automated whole cell patch clamp experiments were performed with the Qpatch 16 system (Sophion Bioscience, Ballerup, Denmark) at room temperature. Data acquisition and analysis were performed in the Qassay software (ver. 5.6, Odense).
To obtain tail currents, the membrane potential was stepped to −100 mV after each test voltage for 300 ms and then relaxed to −30 mV for 2 sec between sweeps (FIG. 3). I/V relationships for whole cell instant and steady state current amplitudes were obtained by plotting average current densities at the beginning and at the end of the 300 ms step against the membrane potential (FIG. 4).
In order to determine the relative overall open probability (Po), the instantaneous tail currents were normalized to the maximal tail current obtained following the most positive voltage step and plotted against the test voltage. Plots of normalized tail currents from each whole cell patch were then fitted to a Boltzmann function allowing determination of half activation voltages (V1/2, FIG. 5).
Osmolality adjusted to ˜320 using sucrose. Intracellular solutions contained: 80 mM CsF, 60 mM CsCl, 5/1 mM KOH/EGTA, 10 mM HEPES, 10 mM NaCl, pH adjusted to 7.2 with NaOH (2 M). Osmolality adjusted to ˜320 mOsm using sucrose.
Cells used in patch clamp experiments were Chinese hamster ovary cells (CHO) constitutively expressing human CIC-1 channels. The amino acid sequence encoded by the cDNA used to create this cell line was identical to the translated sequence for GenBank accession number NM_000083.2. Cells were produced by Charles River (Catalogue CT6175, Cleveland Ohio, USA) in a cryopreserved format. Experiments were performed on the cells directly after thawing (3×10^6 cells used in each experiment).
To evaluate the compound effect on CIC-1, when applied directly to the intracellular side of the cell membrane, the half activation voltage, V1/2, was determined from whole cell patches with compound added to the intracellular solution and then compared to V1/2 determined from control cell patches with only vehicle added to the intracellular solution. Additionally, the effect of extracellular added compound was evaluated by determine V1/2 and steady state current amplitudes before and after exchanging the extracellular solution to contain compound.
The difference in half activation voltage of CIC-1 channels, ΔV1/2, was determined as the difference between the cell patches treated intracellularly with compound and control cells patches and is reported in Table 4 below. A positive shift in ΔV1/2 is reflecting CIC-1 channel inhibition by the tested compound. P-values of <0.05 is considered significant.

T1 sequence (P35523 whole entry): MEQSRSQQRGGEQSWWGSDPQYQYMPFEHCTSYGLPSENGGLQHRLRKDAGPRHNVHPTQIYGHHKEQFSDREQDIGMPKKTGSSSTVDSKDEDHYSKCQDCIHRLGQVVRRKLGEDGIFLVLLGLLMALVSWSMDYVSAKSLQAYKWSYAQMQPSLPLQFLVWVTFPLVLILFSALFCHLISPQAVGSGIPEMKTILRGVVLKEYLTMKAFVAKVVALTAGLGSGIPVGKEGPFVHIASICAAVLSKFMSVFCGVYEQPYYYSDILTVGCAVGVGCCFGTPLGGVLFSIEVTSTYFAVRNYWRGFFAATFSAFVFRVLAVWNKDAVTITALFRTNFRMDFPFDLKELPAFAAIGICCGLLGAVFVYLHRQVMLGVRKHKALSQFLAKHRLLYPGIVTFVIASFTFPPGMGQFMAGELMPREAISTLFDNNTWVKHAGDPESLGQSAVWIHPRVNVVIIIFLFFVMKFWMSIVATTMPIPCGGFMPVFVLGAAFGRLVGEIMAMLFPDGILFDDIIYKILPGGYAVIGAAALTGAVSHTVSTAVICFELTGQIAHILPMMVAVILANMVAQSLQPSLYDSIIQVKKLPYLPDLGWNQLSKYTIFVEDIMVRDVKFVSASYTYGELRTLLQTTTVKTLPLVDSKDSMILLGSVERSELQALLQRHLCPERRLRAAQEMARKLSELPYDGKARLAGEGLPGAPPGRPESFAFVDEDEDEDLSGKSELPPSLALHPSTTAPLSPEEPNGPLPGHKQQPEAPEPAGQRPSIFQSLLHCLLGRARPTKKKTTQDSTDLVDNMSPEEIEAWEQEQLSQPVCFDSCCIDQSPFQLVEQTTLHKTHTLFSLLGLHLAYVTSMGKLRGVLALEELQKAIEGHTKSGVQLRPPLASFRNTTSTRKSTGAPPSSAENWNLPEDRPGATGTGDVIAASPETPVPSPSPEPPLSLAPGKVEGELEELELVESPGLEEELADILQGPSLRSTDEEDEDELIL

## C[C@H](Oc1ccc(Cl)cc1)C(=O)NOC1CCC1 [Compound C-80, (2S)-2-(4-chlorophenoxy)-N-cyclobutoxypropanamide]
  ΔV1/2 (difference in half activation voltage of CIC-1 channels): 9.9 mV

## C[C@H](Oc1ccc(Br)cc1F)c1nn[nH]n1 [Compound E-8, 5-[(1S)-1-(4-bromo-2-fluorophenoxy)ethyl]-2H-1,2,3,4-tetrazole]
  ΔV1/2 (difference in half activation voltage of CIC-1 channels): 38.4 mV
